These results are taken from ChEMBL document CHEMBL1933021, “Novel and selective spiroindoline-based inhibitors of Sky kinase” (Bioorg Med Chem Lett, 2012).

pIC50: −log10 of the molar value. ≈ marks a conversion by molar mass, not a printed value. Calls of active or inactive are those of the source. The rule behind the calls is not given here.

The term bioavailability denotes the share of a dose that reaches the circulation, judged against a reference dose that is usually intravenous. For orientation: half-life means the time in which the quantity being followed falls by half. Lower therefore signals fast loss. As usually defined, the solubility is the concentration that dissolves in the medium under given conditions. In general, CL/F refers to clearance divided by bioavailability, as obtained after extravascular dosing. A word on the pIC50: it is the IC50 on a negative log10 scale, so that one unit is a factor of ten. A high value points to a small IC50.

The test system of series [1] is Tyro3 (Mus musculus). As to the kind of experiment: Inhibition of mouse Sky kinase assessed as inhibition of src substrate phosphorylation by ELISA. On the technique in general: ELISA stands for enzyme-linked immunosorbent assay.
Series [2] can be described thus: Oral bioavailability in Sprague-Dawley rat. Type of series: ADME, organism-based. The settings on record: in vivo.
Series [3] in a line: Permeability of the compound by PAMPA assay. The settings on record: read-out: permeability. Type of series: ADME.
Series [4] is described as follows: Half life in po dosed Sprague-Dawley rat. In kind it is ADME, organism-based. The settings on record: in vivo.
Series [5] is described as follows: Aqueous solubility of compound at pH 6.5. In kind it is physicochemical.
The nature of series [6]: Half life in human liver microsomes. In kind it is ADME, Microsome. On the technique in general: Liver microsomes are a subcellular fraction often used to study metabolism.
Series [7] is described as follows: Clearance in po dosed Sprague-Dawley rat. Type of series: ADME, organism-based. To be noted: in vivo.
The subject of series [8] is Rattus norvegicus. As to the kind of experiment: Volume of distribution at steady state in po dosed Sprague-Dawley rat. In kind it is ADME, organism-based. The settings on record: in vivo.
In series [9] the target is Cytochrome P450 2D6 (Homo sapiens, UniProt P10635). As to the kind of experiment: Inhibition of CYP2D6 using dextromethorphan as substrate. Type of series: ADME.
Chain of Cytochrome P450 2D6 (P10635 whole entry): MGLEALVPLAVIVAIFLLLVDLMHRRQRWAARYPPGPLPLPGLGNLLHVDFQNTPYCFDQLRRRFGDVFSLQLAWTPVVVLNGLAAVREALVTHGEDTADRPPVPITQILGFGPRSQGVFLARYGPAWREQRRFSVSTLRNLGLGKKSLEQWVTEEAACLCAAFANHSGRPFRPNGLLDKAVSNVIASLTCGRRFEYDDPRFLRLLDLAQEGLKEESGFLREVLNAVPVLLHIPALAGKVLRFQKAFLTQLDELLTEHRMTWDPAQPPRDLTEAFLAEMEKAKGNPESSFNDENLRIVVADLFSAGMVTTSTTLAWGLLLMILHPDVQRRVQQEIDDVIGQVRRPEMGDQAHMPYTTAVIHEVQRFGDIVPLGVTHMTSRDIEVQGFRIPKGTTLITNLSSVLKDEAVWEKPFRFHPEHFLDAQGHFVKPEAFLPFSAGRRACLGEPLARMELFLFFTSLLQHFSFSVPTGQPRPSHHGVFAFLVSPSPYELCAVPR

`O=C(c1cc2cc(F)ccc2[nH]1)N1C[C@@]2(CCN(C3CCCCC3)C2)c2ccccc21`: the inhibition result in [1] was “Active”. For `COc1ccc2[nH]c(C(=O)N3C[C@@]4(CCN(C5CCNC5)C4)c4ccccc43)cc2c1` (stereo partly specified), in series [1], the inhibition result is “Active”. As for `O=C(c1cc2cc(Cl)ccc2[nH]1)N1C[C@@]2(CCN(C3CCNCC3)C2)c2ccccc21`, the inhibition result in series [1] was “Active”. As for `Cc1ccc(N2CC[C@]3(C2)CN(C(=O)c2cc4cc(F)ccc4[nH]2)c2ccccc23)cn1`, in series [1], the inhibition entry is “Active”.

For `CCN1CCCC(N2CC[C@@]3(CN(C(=O)c4cc5cc(F)ccc5[nH]4)c4ccccc43)C2)C1` (stereo partly specified), the inhibition entry in [1] was “Active”. Same read-out and setting: with `O=C(c1cc2c(Cl)cccc2[nH]1)N1C[C@@]2(CCN(C3CCNC3)C2)c2ccccc21` (stereo partly specified) the entry was “Active”; with `Cc1ccc2[nH]c(C(=O)N3C[C@@]4(CCN(C5CCNC5)C4)c4ccccc43)cc2c1` (stereo partly specified), “Active”; with `COc1ccc2cc(C(=O)N3C[C@@]4(CCN(C5CCNC5)C4)c4ccccc43)[nH]c2c1` (stereo partly specified), “Active”.

As to `NC(=O)c1ccc2cc(C(=O)N3C[C@@]4(CCN(C5CCNC5)C4)c4ccccc43)[nH]c2c1` (stereo partly specified), the inhibition result in [1] is “Active”. Take `O=C(c1cc2cc(Cl)ccc2[nH]1)N1C[C@@]2(CCN(C3CCNC3)C2)c2ccccc21` (stereo partly specified): the inhibition result in series [1] is “Active”. `O=C(c1cc2cc(Cl)ccc2[nH]1)N1C[C@@]2(CCN(C3CCCNC3)C2)c2ccccc21` (stereo partly specified): the inhibition entry in series [1] is “Active”. In turn, `O=C(c1cc2cc(Cl)ccc2[nH]1)N1C[C@]2(CCN(C3CCNC3)C2)c2ccccc21` (stereo partly specified) returned a bioavailability in series [2] of 14%. For the same molecule, the Papp in series [3] worked out at 0.03 ×10⁻⁶ cm/s. For the same molecule, the half-life in series [4] was 3.1 h; in [6], 1 h. This molecule yielded a solubility in series [5] of 5.2 µM (≈ 2.19 µg/mL). In series [7], this molecule showed a CL/F of 60 mL/min/kg. In series [8], this molecule displayed a Vdss of 13 L/kg. The same molecule had a pIC50 in series [9] of 7.85. For `O=C(c1cc2cc(F)ccc2[nH]1)N1C[C@@]2(CCN(CC3CCCNC3)C2)c2ccccc21` (stereo partly specified), in series [1], the inhibition entry is “Active”. Regarding `O=C(c1cc2cc(F)ccc2[nH]1)N1C[C@@]2(CCN(C3CNC3)C2)c2ccccc21`, the inhibition entry in series [1] is “Active”.
